Measurements reported in patent publication US8846951B2 (AbbVie Inc., priority 2009, dated 2014).
Like-named read-outs stand apart in the source and are kept apart here.

What was measured:
[1] = target: T1, 5HT2B receptors (Homo sapiens, UniProt P41595); assay: Human 5-HT2B functional high throughput screening assay in CHO-K1 cells (calcium flux); type: cell-based; conditions: for EC50: CHO-K1 cells, calcium flux
T1 construct: expressed in transfected cells; host or cells: CHO-K1 cells
How it was run: (§1)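 Agonism was measured as FLIPR fluorescence increase (480/530 nm, 25° C) with Ca4 dye and 2.5 mM probenecid, in serum-starved CHO-K1 lines overexpressing human 5-HT2C or 5-HT2B. Six-point 1:10 dilutions from 10 μM (0.2% DMSO final) were fitted by 4-parameter logistics. Responses were normalised to serotonin to give EC50 and % Emax.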

[2] = target: T2, 5HT2C receptors (Homo sapiens, UniProt P28335); assay: Human 5-HT2C functional high throughput screening assay in CHO-K1 cells (calcium flux); type: cell-based; set-up: expressed in transfected cells; host or cells: CHO-K1 cells; conditions: for Emax: 5-HT2C, maximum functional response as percentage relative to the effect of serotonin; for EC50: CHO-K1 cells, calcium flux
T2 sequence (P28335 33-458): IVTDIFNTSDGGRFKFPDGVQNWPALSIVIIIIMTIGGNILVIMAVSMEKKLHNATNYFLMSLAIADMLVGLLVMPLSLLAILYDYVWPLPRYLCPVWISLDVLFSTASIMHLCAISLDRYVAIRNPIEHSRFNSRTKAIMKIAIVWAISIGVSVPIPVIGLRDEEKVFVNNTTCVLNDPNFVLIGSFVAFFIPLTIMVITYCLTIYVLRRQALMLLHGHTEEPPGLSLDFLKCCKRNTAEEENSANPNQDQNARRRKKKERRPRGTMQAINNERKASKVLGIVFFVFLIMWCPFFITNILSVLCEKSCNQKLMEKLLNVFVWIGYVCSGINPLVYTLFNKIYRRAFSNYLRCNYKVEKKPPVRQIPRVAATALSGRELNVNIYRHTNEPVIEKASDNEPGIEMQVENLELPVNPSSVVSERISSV
How it was run: as §1

[3] = 5-HT2B agonist activity, read-out: EC50
[4] = 5-HT2B, maximum functional response as percentage relative to the effect of serotonin
[5] = 5-HT2C agonist activity, read-out: EC50

T1 sequence (P41595 whole entry): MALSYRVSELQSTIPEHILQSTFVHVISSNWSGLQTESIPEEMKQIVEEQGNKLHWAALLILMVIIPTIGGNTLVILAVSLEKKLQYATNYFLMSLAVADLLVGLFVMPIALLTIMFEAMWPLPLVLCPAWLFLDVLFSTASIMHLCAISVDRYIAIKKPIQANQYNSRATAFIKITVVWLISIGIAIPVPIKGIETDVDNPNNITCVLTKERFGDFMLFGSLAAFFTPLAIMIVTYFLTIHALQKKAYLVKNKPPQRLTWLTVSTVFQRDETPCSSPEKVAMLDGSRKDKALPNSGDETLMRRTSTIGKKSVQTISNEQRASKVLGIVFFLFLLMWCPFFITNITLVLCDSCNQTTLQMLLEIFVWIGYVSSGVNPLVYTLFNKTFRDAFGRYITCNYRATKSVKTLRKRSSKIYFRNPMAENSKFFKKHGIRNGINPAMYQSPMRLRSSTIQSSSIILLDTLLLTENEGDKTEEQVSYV

SMILES	Emax ([1]; CHO-K1)	EC50 ([1]; EC50, 5-HT2B agonist activity)	Emax ([2]; CHO-K1)	EC50 ([2]; EC50, 5-HT2C agonist activity)	EC50 [1, 3]	Emax [1, 4]	Emax ([2]; CHO-K1, read-out: Emax)	further results
Clc1cccc2c1NCC[C@@H]1CNC[C@@H]21 (relative stereo) [Example 392, Trans-7-chloro-1,2,3,3a,4,5,6,10b-octahydropyrrolo[3,4-d][1]benzazepine]	65%	0.04 µM	100%	0.0007 µM				
Clc1cc(Br)c2c(c1)[C@@H]1CNC[C@@H]1CCO2 (relative stereo) [Example 393, Cis-7-bromo-9-chloro-2,3,3a,4,5,10b-hexahydro-1H-[1]benzoxepino[4,5-c]pyrrole]	20%	0.1 µM	60%	0.2 µM				
Clc1cc(Br)c2c(c1)[C@H]1CNC[C@@H]1CCO2 (relative stereo) [Example 394, Trans-7-bromo-9-chloro-2,3,3a,4,5,10b-hexahydro-1H-[1]benzoxepino[4,5-c]pyrrole]	45%	0.1 µM	90%	0.02 µM				
CN1C[C@H]2CCN(C)c3ccc(Cl)cc3[C@@H]2C1 (relative stereo) [Example 395, Trans-9-chloro-2,6-dimethyl-1,2,3,3a,4,5,6,10b-octahydropyrrolo[3,4-d][1]benzazepine]	65%	0.08 µM	50%	0.5 µM				
Brc1ccc2c(c1)[C@@H]1CNC[C@H]1CCN2 (relative stereo) [Example 396, Trans-9-bromo-1,2,3,3a,4,5,6,10b-octahydropyrrolo[3,4-d][1]benzazepine]	60%	0.006 µM	90%	0.03 µM				
c1ccc(-c2cccc3c2OCC[C@H]2CNC[C@H]32)cc1 (relative stereo) [Example 397, Trans-7-phenyl-2,3,3a,4,5,10b-hexahydro-1H-[1]benzoxepino[4,5-c]pyrrole]					> 10 µM	inactive	95%	EC50 [2, 5]: 0.005 µM
Fc1ccc(COc2cccc3c2OCC[C@H]2CNC[C@H]32)cc1 (relative stereo) [Example 398, Trans-7-[(4-fluorobenzyl)oxy]-2,3,3a,4,5,10b-hexahydro-1H-[1]benzoxepino[4,5-c]pyrrole]	100%	0.003 µM	90%	0.002 µM				
Fc1ccc(-c2cccc3c2OCC[C@H]2CNC[C@H]32)cc1 (relative stereo) [Example 399, Trans-7-(4-fluorophenyl)-2,3,3a,4,5,10b-hexahydro-1H-[1]benzoxepino[4,5-c]pyrrole]					> 10 µM	inactive	90%	EC50 [2, 5]: 0.09 µM
CN1C[C@@H]2CCOc3c(-c4ccc(F)cc4)cccc3[C@H]2C1 (relative stereo) [Example 400, Trans-7-(4-fluorophenyl)-2-methyl-2,3,3a,4,5,10b-hexahydro-1H-[1]benzoxepino[4,5-c]pyrrole]					> 10 µM	inactive	70%	EC50 [2, 5]: 0.8 µM
Fc1ccc(-c2cccc3c2NCC[C@@H]2CNC[C@@H]32)cc1 (relative stereo) [Example 401, Trans-7-(4-fluorophenyl)-1,2,3,3a,4,5,6,10b-octahydropyrrolo[3,4-d][1]benzazepine]					> 10 µM	inactive	70%	EC50 [2, 5]: 0.8 µM
COC(=O)c1cccc2c1NCC[C@@H]1CNC[C@@H]21 (relative stereo) [Example 402, Methyl trans-1,2,3,3a,4,5,6,10b-octahydropyrrolo[3,4-d][1]benzazepine-7-carboxylate]	75%	0.2 µM	100%	0.03 µM				
Cc1noc(C)c1-c1ccc2c(c1)C(=O)NC[C@@H]1CNC[C@@H]21 (single isomer, unassigned) [Example 245, Trans-8-(3,5-dimethylisoxazol-4-yl)-1,2,3,3a,4,5-hexahydrobenzo[e]pyrrolo[3,4-c]azepin-6(10bH)-one]	15%	2 µM	100%	0.05 µM				
Cc1noc(C)c1-c1ccc2c(c1)C(=O)NC[C@@H]1CNC[C@@H]21 (single isomer, unassigned) [Example 292, Trans-8-(3,5-dimethyl-1,2-oxazol-4-yl)-2,3,3a,4,5,10b-hexahydropyrrolo[3,4-d][2]benzazepin-6(1H)-one]						15%		EC50 ([1]; 5-HT2B agonist activity): 2 µM; EC50 ([2]; 5-HT2C agonist activity): 0.05 µM; Emax [2]: 100%
C[C@H](O)c1cc(-c2ccc3c(c2)C(=O)NC[C@H]2CN(C)C[C@H]32)ccc1F (single isomer, unassigned) [Example 352]					> 10 µM	inactive	105%	EC50 [2, 5]: 0.0004 µM
C[C@@H](O)c1cc(-c2ccc3c(c2)C(=O)NC[C@H]2CN(C)C[C@H]32)ccc1F (single isomer, unassigned) [Example 353]					> 10 µM	inactive	110%	EC50 [2, 5]: 0.0003 µM
O=C1NC[C@H]2CN(Cc3ccccc3)C[C@@H]2c2c(F)cc(F)cc21 [Example 105, (3aS,10bS)-2-Benzyl-8,10-difluoro-1,2,3,3a,4,5-hexahydrobenzo[c]pyrrolo[3,4-e]azepin-6(10bH)-one]		> 10 µM	> 120%	0.02 µM		inactive		
CN1C[C@H]2CNC(=O)c3c(OC(F)(F)F)cccc3[C@@H]2C1 [Example 112, (3aR,10bR)-2-Methyl-7-(trifluoromethoxy)-1,2,3,3a,4,5-hexahydrobenzo[c]pyrrolo[3,4-e]azepin-6(10bH)-one]		> 10 µM	90%			inactive		
CN1C[C@@H]2CNC(=O)c3c(OC(F)(F)F)cccc3[C@H]2C1 [Example 113, (3aS,10bS)-2-Methyl-7-(trifluoromethoxy)-1,2,3,3a,4,5-hexahydrobenzo[c]pyrrolo[3,4-e]azepin-6(10bH)-one]	20%	2 µM	120%	0.005 µM				
CN1C[C@H]2CNC(=O)c3cc(-c4ccc(F)cc4)ccc3[C@@H]2C1 [Example 116, (3aR,10bR)-8-(4-Fluorophenyl)-2-methyl-1,2,3,3a,4,5-hexahydrobenzo[e]pyrrolo[3,4-c]azepin-6(10bH)-one]					> 10 µM	inactive	90%	
COc1ccc(-c2ccc3c(c2)C(=O)NC[C@@H]2CN(C)C[C@@H]32)cc1 [Example 159, (3aR,10bR)-8-(4-Methoxyphenyl)-2-methyl-1,2,3,3a,4,5-hexahydrobenzo[e]pyrrolo[3,4-c]azepin-6(10bH)-one]					> 10 µM	inactive	110%	
COc1cccc(-c2ccc3c(c2)C(=O)NC[C@H]2CN(C)C[C@H]32)c1 [Example 160, (3aS,10bS)-8-(3-Methoxyphenyl)-2-methyl-1,2,3,3a,4,5-hexahydrobenzo[e]pyrrolo[3,4-c]azepin-6(10bH)-one]					> 10 µM	inactive	> 120%	EC50 [2, 5]: 0.0008 µM
COc1cccc(-c2ccc3c(c2)C(=O)NC[C@@H]2CN(C)C[C@@H]32)c1 [Example 161, (3aR,10bR)-8-(3-Methoxyphenyl)-2-methyl-1,2,3,3a,4,5-hexahydrobenzo[e]pyrrolo[3,4-c]azepin-6(10bH)-one]					> 10 µM	inactive	110%	
CN1C[C@@H]2CNC(=O)c3cc(F)cc(F)c3[C@H]2C1 [Example 162, (3aS,10bS)-8,10-Difluoro-2-methyl-1,2,3,3a,4,5-hexahydrobenzo[e]pyrrolo[3,4-c]azepin-6(10bH)-one]	40%	0.1 µM	> 120%	0.008 µM				
CN1C[C@@H]2CN(C)C(=O)c3cc(F)ccc3[C@H]2C1 [Example 163, (3aR,10bS)-8-Fluoro-2,5-dimethyl-1,2,3,3a,4,5-hexahydrobenzo[e]pyrrolo[3,4-c]azepin-6(10bH)-one]	20%	0.8 µM	> 120%	0.06 µM				
O=C1NC[C@H]2CNC[C@@H]2c2ccc(OCc3ccccc3F)cc21 [Example 179, (3aR,10bS)-8-(2-Fluorobenzyloxy)-1,2,3,3a,4,5-hexahydrobenzo[e]pyrrolo[3,4-e]azepin-6(10bH)-one]		> 10 µM	> 120%	0.0003 µM		inactive		
O=C1NC[C@@H]2CNC[C@H]2c2ccc(OCc3ccccc3F)cc21 [Example 180, (3aS,10bR)-8-(2-Fluorobenzyloxy)-1,2,3,3a,4,5-hexahydrobenzo[e]pyrrolo[3,4-c]azepin-6(10bH)-one]		> 10 µM	> 120%			inactive		
